The target in experiment [1] is FGFR2 (Homo sapiens (Human), UniProt P21802). Put plainly: FGFR2 Biochemical Caliper Assay. On the procedure: Compounds of the present invention were also tested in a FGFR2 Biochemical Caliper Assay. Compounds were prepared in 10 mM DMSO solution and serially diluted into 11 concentrations by 3-fold dilution. […] 5 uL of ATP solution (100 uM) was added to start the reaction and the plate was incubated for 90 minutes, then 70 uL of stopping buffer (0.5M EDTA) was added to terminate the reaction. Each well was analyzed using EZ reader.

Experiment [2] has as its system SNU16 cells. Put plainly: SNU16 Cancer Cell Line Proliferation Assay. It counts as cell-based. To be noted: Homo sapiens; SNU-16 cells. An outline of the steps: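 Proliferation read-out: CellTiter Glo chemiluminescence after 96 h compound exposure. Test compounds, serially diluted 3-fold over 11 points from a 10 mM DMSO stock, were added to SNU16 cells plated 24 h earlier at 37 degrees.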

A value given as a limit tells only on which side of the number the result lay.

FGFR2, sequence (P21802 22-821): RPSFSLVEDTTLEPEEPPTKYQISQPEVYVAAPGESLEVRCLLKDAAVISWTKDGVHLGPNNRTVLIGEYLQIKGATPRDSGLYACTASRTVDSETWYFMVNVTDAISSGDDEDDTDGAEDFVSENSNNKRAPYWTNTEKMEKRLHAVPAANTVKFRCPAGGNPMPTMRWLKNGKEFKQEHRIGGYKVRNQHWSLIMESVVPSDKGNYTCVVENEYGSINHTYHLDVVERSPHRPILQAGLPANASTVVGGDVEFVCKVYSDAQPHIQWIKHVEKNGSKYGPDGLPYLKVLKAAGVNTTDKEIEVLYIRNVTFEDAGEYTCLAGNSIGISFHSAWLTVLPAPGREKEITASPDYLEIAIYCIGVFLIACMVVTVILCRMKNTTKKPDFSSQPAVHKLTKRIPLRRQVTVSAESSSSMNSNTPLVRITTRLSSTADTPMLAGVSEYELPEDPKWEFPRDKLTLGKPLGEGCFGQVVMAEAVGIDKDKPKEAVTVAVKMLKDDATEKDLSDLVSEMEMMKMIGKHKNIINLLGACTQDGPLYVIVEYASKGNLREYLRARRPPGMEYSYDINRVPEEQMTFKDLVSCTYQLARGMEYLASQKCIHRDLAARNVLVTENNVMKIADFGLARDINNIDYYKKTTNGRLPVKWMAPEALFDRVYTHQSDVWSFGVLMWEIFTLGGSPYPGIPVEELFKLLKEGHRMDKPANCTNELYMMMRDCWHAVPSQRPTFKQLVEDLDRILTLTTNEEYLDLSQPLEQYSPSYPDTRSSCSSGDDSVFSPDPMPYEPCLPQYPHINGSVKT

Turning to `C=C(C)C(=O)Nc1ccc(-c2c(-c3ccc(Oc4nccc(C)n4)c(OC)c3)c3c(N)ncnc3n2C)cc1` [Example 446], the IC50 (usually the concentration at which inhibition is half-maximal) in experiment [1] was 100 to 250 nM; in experiment [2], ≤ 100 nM.
Consider `C=C(C)C(=O)Nc1ccc(-c2c(C3=CCC(Oc4ncc(F)cn4)CC3)c3c(N)ncnc3n2C)cc1` (centres unmarked) [Example 458], for which the figures for the IC50 in experiment [1] and in experiment [2] were 100 to 250 nM and ≤ 100 nM, respectively.
Taken in the same sequence, the figures for `C/C=C/C(=O)N1CCC(n2cc(-c3c(-c4ccc(Oc5cccc(C)n5)cc4)c4c(N)ncnc4n3C)cn2)C1` (centres unmarked) [Example 640] were < 100 nM and ≤ 100 nM.
The corresponding values for `C=C(C)C(=O)N1CCC(n2cc(-c3c(-c4ccc(Oc5ccccc5)cc4)c4c(N)ncnc4n3C)cn2)CC1` [Example 652] are 100 to 250 nM and 1000 to 100000 nM.
Taken in the same sequence, the figures for `C=CC(=O)N1CCC(c2c(-c3ccc(Oc4ncccn4)cc3)c3c(N)ncnc3n2CCN2CCN(C)CC2)C1` (centres unmarked) [Example 738] were 1000 to 100000 nM and 1000 to 100000 nM.
For `C=C(C)C(=O)Nc1ccc(-c2c(-c3ccc(C(=O)N(C)Cc4noc(C)n4)cc3)c3c(N)ncnc3n2C)cc1` [Example 375], the IC50 in experiment [1] and in experiment [2] was 250 to 1000 nM each time.
As for `C=C(C)C(=O)Nc1ccc(-c2c(-c3ccc(C(=O)N4CCCCCC4)cc3)c3c(N)ncnc3n2C)cc1` [Example 230], the IC50 was < 100 nM in experiment [1] and ≤ 100 nM in experiment [2].
The corresponding values for `C=CC(=O)Nc1ccc(-c2c(-c3ccc(Oc4ccn(C)n4)c(OC)c3)c3c(N)ncnc3n2C)cc1` [Example 145] are < 100 nM and ≤ 100 nM.
The corresponding values for `C=C(C)C(=O)Nc1c(F)cc(-c2c(-c3ccc(C(=O)N4CCCC4)cc3)c3c(N)ncnc3n2C)cc1F` [Example 210] are 1000 to 100000 nM and 250 to 1000 nM.
Taken in the same sequence, the figures for `C=CC(=O)N1CCC(c2c(-c3ccc(N4CCCC4)cc3)c3c(N)ncnc3n2C)C1` (centres unmarked) [Example 719] were < 100 nM and ≤ 100 nM.
Take `C=CC(=O)Nc1ccc(-c2c(-c3ccc(C(=O)N4CCCC4)cc3)c3c(N)ncnc3n2C)cc1F` [Example 217]: the IC50 is < 100 nM in experiment [1] and ≤ 100 nM in experiment [2].
The corresponding values for `C=C(C)C(=O)Nc1ccc(-c2c(-c3ccc(C(=O)N4CCCC4)cc3)c3c(N)ncnc3n2C)c(Cl)c1` [Example 434] are < 100 nM and ≤ 100 nM.
In the case of `C=C(C)C(=O)Nc1ccc(-c2c(-c3ccc(C(=O)N[C@@H](COC)C4CC4)cc3)c3c(N)ncnc3n2C)cc1` [Example 346], the figures for the IC50 in experiment [1] and in experiment [2] were < 100 nM and ≤ 100 nM, respectively.
Taken in the same sequence, the figures for `C=CC(=O)N1CCC(n2cc(-c3c(-c4ccc(Oc5cccc(C)n5)cc4)c4c(N)ncnc4n3C)c(C)n2)CC1` [Example 632] were < 100 nM and ≤ 100 nM.
The corresponding values for `C=C(C)C(=O)Nc1ccc(-c2c(-c3ccc(Oc4cccc(C)n4)cc3)c3c(N)ncnc3n2C)cc1F` [Example 340] are < 100 nM and ≤ 100 nM.
The corresponding values for `C=CC(=O)N1CCC(c2c(-c3ccc(CN4CCCC4)cc3)c3c(N)ncnc3n2C)C1` (centres unmarked) [Example 763] are 250 to 1000 nM and 250 to 1000 nM.
With `C=C(C)C(=O)Nc1ccc(-c2c(-c3ccc(C(=O)N4CCCC4)cc3)c3c(N)ncnc3n2C)c(F)c1` [Example 355], the 50% inhibitory concentration (IC50) in experiment [1] was < 100 nM; in experiment [2] it was ≤ 100 nM.
Taken in the same sequence, the figures for `C=CC(=O)N1CC=C(c2c(-c3ccc(Oc4cc(C)ccn4)c(OC)c3)c3c(N)ncnc3n2C)CC1` [Example 677] were < 100 nM and ≤ 100 nM.
Taken in the same sequence, the figures for `C=CC(=O)N1CC=C(c2c(-c3ccc(Oc4ccc(C)cn4)c(OC)c3)c3c(N)ncnc3n2C)CC1` [Example 683] were < 100 nM and ≤ 100 nM.
Taken in the same sequence, the figures for `C=CC(=O)N1CC=C(c2c(-c3ccc(Oc4cccc(C)n4)c(OC)c3)c3c(N)ncnc3n2C)CC1` [Example 620] were < 100 nM and ≤ 100 nM.
`C=CC(=O)N1CCC(c2c(-c3ccc(NC4CCOCC4)cc3)c3c(N)ncnc3n2C)C1` (centres unmarked) [Example 773]: the IC50 in experiment [1] and in experiment [2] was 1000 to 100000 nM in each case.
Consider `C=C(C)C(=O)Nc1ccc(-c2c(-c3ccc(Oc4nccc(C(F)F)n4)c(F)c3)c3c(N)ncnc3n2C)cc1` [Example 514], for which the IC50 in experiment [1] is < 100 nM; in experiment [2] it was ≤ 100 nM.
Turning to `C=C(C)C(=O)Nc1ccc(-c2c(-c3ccc(S(=O)(=O)NCC(C)C)cc3)c3c(N)ncnc3n2C)cc1` [Example 303], the IC50 in experiment [1] and in experiment [2] was 250 to 1000 nM throughout.
In the case of `C=C(C)C(=O)N1CCC(n2cc(-c3c(-c4ccc(OC)cc4)c4c(N)ncnc4n3C)cn2)CC1` [Example 653], the half-maximal inhibitory concentration (IC50) in experiment [1] fell in the range of 250 to 1000 nM; in experiment [2], 1000 to 100000 nM.
The corresponding values for `C=C(C)C(=O)Nc1ccc(-c2c(-c3ccc(S(=O)(=O)C4CCCC4)cc3)c3c(N)ncnc3n2C)cc1` [Example 150] are < 100 nM and ≤ 100 nM.
Taken in the same sequence, the figures for `C=C(C)C(=O)Nc1ccc(-c2c(-c3ccc(Oc4cccc(C)n4)c(OCCOC)c3)c3c(N)ncnc3n2C)cc1` [Example 378] were 1000 to 100000 nM and 250 to 1000 nM.
On to `C=CC(=O)N1CCC(c2c(-c3ccc(C4CCC(=O)N4)cc3)c3c(N)ncnc3n2C)C1` (centres unmarked) [Example 762], for which the IC50 in experiment [1] and in experiment [2] was 1000 to 100000 nM each time.
Regarding `C=CC(=O)Nc1ccc(-c2c(-c3ccc(C(=O)N4CCCC4)cc3)c3c(N)ncnc3n2C)cc1` [Example 128], the IC50 in experiment [1] is < 100 nM; in experiment [2], ≤ 100 nM.
Taken in the same sequence, the figures for `C=C(C)C(=O)Nc1ccc(-c2c(-c3ccc(Cn4cccn4)cc3)c3c(N)ncnc3n2C)cc1` [Example 244] were 1000 to 100000 nM and 250 to 1000 nM.
Take `C=CC(=O)N1CCC(c2c(-c3ccc(OCC(F)(F)F)nc3)c3c(N)ncnc3n2C)C1` (centres unmarked) [Example 733]: the IC50 in experiment [1] and in experiment [2] was 250 to 1000 nM throughout.
As to `C=C(C)C(=O)Nc1ccc(-c2c(-c3ccc(Oc4nccc(C)n4)c(F)c3)c3c(N)ncnc3n2C)c(F)c1` [Example 482], the concentration for half-maximal inhibition (IC50) is < 100 nM in experiment [1] and ≤ 100 nM in experiment [2].
Taken in the same sequence, the figures for `C=C(C)C(=O)Nc1ccc(-c2c(-c3ccc(Oc4ncc(C)cn4)cc3)c3c(N)ncnc3n2C)cc1` [Example 339] were 100 to 250 nM and ≤ 100 nM.
As for `C=CC(=O)N1CCC(c2c(-c3ccc(C(=O)N4CCSC4)cc3)c3c(N)ncnc3n2C)C1` (centres unmarked) [Example 731], the half-inhibitory concentration (IC50) in experiment [1] and in experiment [2] was 250 to 1000 nM throughout.
As to `C=C(C)C(=O)Nc1ccc(-c2c(-c3ccc(Cn4nc(C)cc4C)cc3)c3c(N)ncnc3n2C)cc1` [Example 140], the results for the IC50 in experiment [1] and in experiment [2] were 250 to 1000 nM and 100 to 250 nM, respectively.
The corresponding values for `Cn1c(-c2ccc(NC(=O)C3=CCC3)cc2)c(C2=CC[C@@H](C(=O)N3CCCC3)CC2)c2c(N)ncnc21` (single isomer, unassigned) [Example 565] are < 100 nM and ≤ 100 nM.
The corresponding values for `Cn1c(-c2ccc(NC(=O)[C@@H]3CO3)cc2)c(-c2ccc(C(=O)N3CCCC3)cc2)c2c(N)ncnc21` (single isomer, unassigned) [Example 584] are 100 to 250 nM and 250 to 1000 nM.
The corresponding values for `C=C(C)C(=O)Nc1ccc(-c2c(-c3ccc(OC4CCOC4)c(C)c3)c3c(N)ncnc3n2C)cc1` (centres unmarked) [Example 202] are 250 to 1000 nM and 100 to 250 nM.
`C=C(C)C(=O)Nc1ccc(-c2c(C3=CCC(C(=O)NC)CC3)c3c(N)ncnc3n2C)cc1` (centres unmarked) [Example 201]: the figures for the IC50 in experiment [1] and in experiment [2] were 1000 to 100000 nM and 250 to 1000 nM, respectively.
Taken in the same sequence, the figures for `C=C(C)C(=O)Nc1ccc(-c2c(-c3ccc(C(=O)N4CCCC4)cc3)c3c(N)ncnc3n2C)c(C(F)F)c1` [Example 436] were < 100 nM and 100 to 250 nM.
Consider `C=C(C)C(=O)Nc1ccc(-c2c(-c3cc(F)c(Oc4ncc(C)cn4)c(F)c3)c3c(N)ncnc3n2C)cc1` [Example 423], for which the IC50 is < 100 nM in experiment [1] and 100 to 250 nM in experiment [2].
The corresponding values for `C=CC(=O)N1CC[C@@H](c2c(-c3ccc(Oc4ncccn4)cc3)c3c(N)ncnc3n2CC)C1` (single isomer, unassigned) [Example 708] are < 100 nM and ≤ 100 nM.
Taken in the same sequence, the figures for `C=C(C)C(=O)Nc1ccc(-c2c(-c3ccc(Oc4cccc(C)n4)c(CN(C)C)c3)c3c(N)ncnc3n2C)cc1` [Example 475] were 1000 to 100000 nM and 250 to 1000 nM.
The corresponding values for `C=CC(=O)N1CCC(c2c(-c3ccc(C(=O)N4CCCC4)cc3)c3c(N)ncnc3n2C)C1` (centres unmarked) [Example 735] are 250 to 1000 nM and 250 to 1000 nM.
With `C=CC(=O)Nc1ccc(-c2c(-c3ccc(C(=O)N4CCCC4)cc3)c3c(N)ncnc3n2C)cc1C` [Example 220], the values for the IC50 in experiment [1] and in experiment [2] were < 100 nM and ≤ 100 nM, respectively.
Taken in the same sequence, the figures for `Cn1c(-c2ccc(NC(=O)C3=CCC3)cc2)c(-c2ccc(C(=O)N3CCCC3)cc2)c2c(N)ncnc21` [Example 512] were < 100 nM and ≤ 100 nM.
Taken in the same sequence, the figures for `C=C(C)C(=O)Nc1ccc(-c2c(-c3ccc(Oc4nccc(C)n4)c(F)c3)c3c(N)ncnc3n2C)c(COC)c1` [Example 500] were < 100 nM and ≤ 100 nM.
Taken in the same sequence, the figures for `C=CC(=O)N1CCC(n2ncc(-c3c(-c4ccc(Oc5cccc(C)n5)c(OC)c4)c4c(N)ncnc4n3C)c2C)CC1` [Example 673] were < 100 nM and ≤ 100 nM.
In the case of `C=C(C)C(=O)Nc1ccc(-c2c(-c3cncc(N4CCOCC4)c3)c3c(N)ncnc3n2C)cc1` [Example 166], the IC50 is 1000 to 100000 nM in experiment [1] and 250 to 1000 nM in experiment [2].
Taken in the same sequence, the figures for `C=CC(=O)N1CCC(c2nc(-c3c(-c4ccc(Oc5cccc(C)n5)cc4)c4c(N)ncnc4n3C)no2)CC1` [Example 660] were < 100 nM and ≤ 100 nM.

Source of the values: patent publication US11780845B2 (Relay Therapeutics, Inc., priority 2019, dated 2023).
